Experiments:
[1] = target: T1, human diamine oxidase (Homo sapiens, UniProt P19801); experiment: inhibition of human diamine oxidase; conditions: qualitative statement
T1 sequence (P19801 20-751): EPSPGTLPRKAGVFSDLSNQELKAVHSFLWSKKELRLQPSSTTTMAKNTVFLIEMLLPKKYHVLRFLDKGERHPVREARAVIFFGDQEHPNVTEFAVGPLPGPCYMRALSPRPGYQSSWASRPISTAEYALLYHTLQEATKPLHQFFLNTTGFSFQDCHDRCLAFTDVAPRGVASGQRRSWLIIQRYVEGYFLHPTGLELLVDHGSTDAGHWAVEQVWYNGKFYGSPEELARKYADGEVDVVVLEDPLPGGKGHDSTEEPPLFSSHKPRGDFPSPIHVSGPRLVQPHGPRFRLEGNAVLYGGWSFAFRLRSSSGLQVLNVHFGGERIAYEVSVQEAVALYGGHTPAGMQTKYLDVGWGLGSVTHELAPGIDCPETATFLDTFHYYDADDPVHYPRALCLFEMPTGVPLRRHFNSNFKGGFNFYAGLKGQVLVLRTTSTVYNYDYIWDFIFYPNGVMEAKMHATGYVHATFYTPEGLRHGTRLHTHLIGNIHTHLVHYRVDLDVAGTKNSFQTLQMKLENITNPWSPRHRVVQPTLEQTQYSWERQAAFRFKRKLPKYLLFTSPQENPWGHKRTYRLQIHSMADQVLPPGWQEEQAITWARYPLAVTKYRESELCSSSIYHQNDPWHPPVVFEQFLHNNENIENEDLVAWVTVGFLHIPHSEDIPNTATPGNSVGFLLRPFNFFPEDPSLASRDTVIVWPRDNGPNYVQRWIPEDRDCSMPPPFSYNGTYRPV

[2] = system: SGLT2 versus SGLT1; conditions: Grempler et al. 2012; cited from earlier work
[3] = system: patients with type 2 diabetes mellitus; conditions: patients with type 2 diabetes mellitus at high risk for cardiovascular events; Zinman et al. 2015; cited from earlier work
[4] = system: HbA1c; conditions: metformin on its own, in the diabetic; cited from earlier work

CC(C)(C)NC(=O)c1ccc(OC/C(=C/F)CN)cc1 [Compound 23, (E)-4-(2-(Aminomethyl)-3-fluoroallyloxy)-N-tert-butylbenzamide]
inhibitory activity against human diamine oxidase [1]: low inhibitory activity

OC[C@H]1O[C@@H](c2ccc(Cl)c(Cc3ccc(O[C@H]4CCOC4)cc3)c2)[C@H](O)[C@@H](O)[C@@H]1O [empagliflozin]
selectivity SGLT2 versus SGLT1 [2]: high selectivity | rates of the primary composite cardiovascular outcome and of death from any cause [3]: significantly lower rates

CN(C)C(=N)N=C(N)N [metformin]
average improvement in the HbA1c value [4]: 1.0-1.5%
